In US20240247080A1, “GLP1/GIP/NPY2 RECEPTOR TRIPLE AGONISTS” (Boehringer Ingelheim International GmbH, priority 2022, published 2024):
Read-outs that look alike come from different tables or passages of the source. Starred links: 1 amine or outer side, 2 acyl side, 3 side chain; linkers in the order of their positions; H or OH if unused. Non-standard residues stand in square brackets, D forms with d. Groups on a side chain read outwards from the residue. No end group written: not given here. *: point of attachment. C20 diacid = O=C(O)CCCCCCCCCCCCCCCCCCC(=O)*; γGlu = O=C(O)[C@H](CCC(=O)[*:2])N[*:1]; εLys = N[C@@H](CCCCN[*:1])C(=O)[*:2]; AEEA = NCCOCCOCC(=O)O; Aib = CC(C)(N)C(=O)O

Legend:
Type in all cases: cell-based
Settings in all cases: CreLuc reporter gene assay
hGLP1R = biological target: T1, hGLP1R (Homo sapiens, UniProt P43220); assay: hGLP1R CreLuc reporter gene assay in 0.5% and 100% plasma
T1 construct: expressed in transfected cells; host or cells: HEK-293 cells carrying a CRE-luciferase reporter gene
T1 sequence (P43220 24-463): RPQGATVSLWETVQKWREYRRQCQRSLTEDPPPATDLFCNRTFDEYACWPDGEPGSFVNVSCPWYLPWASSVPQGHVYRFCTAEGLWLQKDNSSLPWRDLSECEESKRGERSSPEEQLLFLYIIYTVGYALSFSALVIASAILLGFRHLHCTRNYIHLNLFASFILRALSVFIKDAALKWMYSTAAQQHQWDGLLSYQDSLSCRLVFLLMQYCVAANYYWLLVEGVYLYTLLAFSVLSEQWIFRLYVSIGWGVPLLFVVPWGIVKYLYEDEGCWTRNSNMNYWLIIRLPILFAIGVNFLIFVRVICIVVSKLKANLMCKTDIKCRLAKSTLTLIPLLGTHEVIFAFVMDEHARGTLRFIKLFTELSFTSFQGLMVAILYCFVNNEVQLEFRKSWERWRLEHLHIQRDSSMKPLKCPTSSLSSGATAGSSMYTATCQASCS
How it was run: (§1)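 HEK cells (GLP-1R, NPY2R) or CHO cells (GIPR) carrying a CRE-luciferase reporter, incubated 4 h at 37 °C with peptides in HBSS/20 mM HEPES pH 7.4 plus 0.5% human plasma, or in 100% plasma. Luminescence read; EC50 from 8-point variable-slope sigmoid fits.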

hNPY2R = biological target: T2, hNPY2R (Homo sapiens, UniProt P49146); assay: hNPY2R CreLuc reporter gene assay in 0.5% and 100% plasma
T2 construct: expressed in transfected cells; host or cells: HEK-293 cells carrying a CRE-luciferase reporter gene
T2 sequence (P49146 1-381): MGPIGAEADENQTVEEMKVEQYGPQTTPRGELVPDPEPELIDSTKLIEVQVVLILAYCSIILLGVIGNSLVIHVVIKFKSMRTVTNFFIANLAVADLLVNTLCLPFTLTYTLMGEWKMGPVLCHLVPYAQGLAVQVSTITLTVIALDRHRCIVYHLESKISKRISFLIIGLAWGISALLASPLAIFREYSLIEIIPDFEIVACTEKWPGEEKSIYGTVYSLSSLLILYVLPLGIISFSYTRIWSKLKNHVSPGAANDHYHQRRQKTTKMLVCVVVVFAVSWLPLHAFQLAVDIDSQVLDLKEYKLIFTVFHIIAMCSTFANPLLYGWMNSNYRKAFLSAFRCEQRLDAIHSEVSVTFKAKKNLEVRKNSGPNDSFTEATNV
Text: Example 1: hGLPR/hGIPR/hNPY2R CreLuc Assay in 0.5% and 100% Plasma
CHO and HEK-293 recombinant cell lines express a luciferase reporter gene under control of the cAMP responsive element (CRE). As a second recombinant protein the GLP-1 and NPY2 receptors were expressed in the reporter gene HEK cells, and the GIP receptor was expressed in the reporter gene CHO cells, respectively. Stimulation of these recombinant cells with an agonist leads to an increase of intracellular cAMP levels. In the presence of cAMP, the transcription factor CRE binding protein (CREB) binds to the CRE and to the CREB binding protein (CBP), which leads to transcription of the luciferase reporter gene. Peptides upon serial-dilution in 100% DMSO were transferred into 384-well assay plates with 5 μl pre-dispensed assay buffer (1×HBSS, 20 mM HEPES, pH7.4 supplemented with 0.5% human plasma) using acoustic dispensing on a Labcyte ECHO. Cryo-preserved transgenic reporter gene cells were thawed in assay buffer. 20 μl (10.000 cells/well) were added to the plate with the peptides and incubated for 4 hours at 37° C. in a humidified incubator. Following incubation, assay plates are equilibrated to room temperature, followed by addition of 25 μl of Bright-GIo™ Luciferase reagent, incubation at room temperature for 10 minutes and analysis of luminescence (Envision Reader). Concentration response evaluation of compounds was performed with 8 concentrations of peptides (covering four decades). EC50 values were calculated by non-linear regression using sigmoid concentration-response with variable slope. The same assays were run in the presence of 100% plasma with no additional buffer constituents.

hGIPR = biological target: T3, hGIPR (Homo sapiens, UniProt P48546); assay: hGIPR CreLuc reporter gene assay in 0.5% and 100% plasma
T3 construct: expressed in transfected cells; host or cells: CHO cells carrying a CRE-luciferase reporter gene
T3 sequence (P48546 22-466): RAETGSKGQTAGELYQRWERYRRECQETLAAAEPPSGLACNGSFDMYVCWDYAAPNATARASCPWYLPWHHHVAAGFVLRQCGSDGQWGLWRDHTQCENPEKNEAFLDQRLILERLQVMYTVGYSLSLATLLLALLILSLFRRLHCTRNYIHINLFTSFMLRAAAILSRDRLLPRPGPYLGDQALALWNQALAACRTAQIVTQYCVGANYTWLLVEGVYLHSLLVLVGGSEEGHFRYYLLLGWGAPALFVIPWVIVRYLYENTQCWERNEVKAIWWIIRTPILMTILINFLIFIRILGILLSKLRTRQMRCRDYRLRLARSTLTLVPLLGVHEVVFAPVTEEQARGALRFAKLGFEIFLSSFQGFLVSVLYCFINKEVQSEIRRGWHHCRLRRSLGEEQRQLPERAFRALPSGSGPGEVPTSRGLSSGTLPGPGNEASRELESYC
How it was run: as §1

[1] = 0.5% human plasma, read-out: hGLP1R 0.5% hP
[2] = 0.5% human plasma, read-out: hNPY2R 0.5% hP
[3] = 100% human plasma, read-out: hNPY2R 100% hP
[4] = 0.5% human plasma, read-out: hGIPR 0.5% hP
[5] = 100% human plasma, read-out: hGIPR 100% hP
[6] = 100% human plasma, read-out: hGLP1R 100% hP

Work on CC[C@H](C)[C@H](NC(=O)[C@H](CC(C)C)NC(=O)[C@H](Cc1c[nH]c2ccccc12)NC(=O)[C@H](CCC(=O)O)NC(=O)[C@@H](NC(=O)[C@H](Cc1ccccc1)NC(=O)[C@H](C)NC(=O)C(C)(C)NC(=O)[C@H](CCC(N)=O)NC(=O)[C@H](C)NC(=O)[C@H](CCC(N)=O)NC(=O)[C@H](CCCCN)NC(=O)[C@H](CCC(=O)O)NC(=O)[C@H](CC(C)C)NC(=O)C(C)(C)NC(=O)[C@@H](NC(=O)[C@H](CO)NC(=O)[C@H](Cc1ccc(O)cc1)NC(=O)[C@H](CC(=O)O)NC(=O)[C@H](CO)NC(=O)[C@@H](NC(=O)[C@H](Cc1ccccc1)NC(=O)[C@@H](NC(=O)CNC(=O)[C@H](CCC(=O)O)NC(=O)C(C)(C)NC(=O)[C@@H](N)Cc1ccc(O)cc1)[C@@H](C)O)[C@@H](C)O)[C@@H](C)CC)C(C)C)C(=O)N[C@@H](CCCCNC(=O)[C@@H](N)CCCCNC(=O)CC[C@H](NC(=O)CC[C@H](NC(=O)CC[C@H](NC(=O)CC[C@H](NC(=O)CC[C@H](NC(=O)CC[C@H](NC(=O)CCCCCCCCCCCCCCCCCCC(=O)O)C(=O)O)C(=O)O)C(=O)O)C(=O)O)C(=O)O)C(=O)O)C(=O)NCC(=O)NCC(=O)N1CCC[C@H]1C(=O)N[C@@H](CO)C(=O)N[C@@H](CO)C(=O)NCC(=O)N[C@@H](C)C(=O)N[C@@H](CO)C(=O)N[C@H](CC(C)C)C(=O)N[C@@H](CCCNC(=N)N)C(=O)N[C@H](Cc1c[nH]cn1)C(=O)N[C@@H](Cc1ccc(O)cc1)C(=O)N[C@@H](Cc1ccc(O)cc1)C(=O)N[C@@H](CC(N)=O)C(=O)N[C@@H](Cc1c[nH]c2ccccc12)C(=O)N[C@@H](CC(C)C)C(=O)N[C@H](C(=O)N[C@H](CCCNC(=N)N)C(=O)N[C@@H](CCC(N)=O)C(=O)N[C@@H](CCCNC(=N)N)C(=O)N[C@H](Cc1ccc(O)cc1)C(N)=O)[C@@H](C)O [Compound 5, Y-Aib-E-G-T-F-T-S-D-Y-S-I-Aib-L-E-K-Q-A-Q-Aib-A-F-V-E-W-L-I-K(1,3)-G-G-P-S-S-G-A-S-DLeu-R-DHis-Y-Y-N-W-L-T-DArg-Q-R-DTyr-NH2.C20DA-gGlu-gGlu-gGlu-gGlu-gGlu-gGlu-eLys(1,2)] yielded an EC50 (hGLP1R; [1]) of 0.11 nM, an EC50 (hNPY2R; [2]) greater than 99.9 nM and an EC50 (hNPY2R; [3]) greater than 999 nM. The EC50 (hGIPR; [4]) was 0.17 nM and the EC50 (hGIPR; [5]) was 1.07 nM.

“H-Y[Aib]EGTFTSDYSI[Aib]LEKQAQ[Aib]AFVEWLIK([εLys-γGlu-γGlu-γGlu-γGlu-γGlu-γGlu-C20 diacid])GGPSSAASLRHYYNWLTRQRY-NH2 [Compound 98, Y-Aib-E-G-T-F-T-S-D-Y-S-I-Aib-L-E-K-Q-A-Q-Aib-A-F-V-E-W-L-I-K(1,3)-GGPSSAASLRHYYNWLTRQRY-NH2.C20DA-gGlu-gGlu-gGlu-gGlu-gGlu-gGlu-eLys(1,2)]” gave an EC50 (hGLP1R; [1]) of 0.31 nM and an EC50 (hNPY2R; [2]) of 15.1 nM.

“H-Y[Aib]EGTFTSDYSI[Aib]LEKQAQ[Aib]AFVQWLIK([εLys-γGlu-γGlu-γGlu-γGlu-γGlu-γGlu-C20 diacid])GGPSYYVSLRHYYNWLTRQRY-NH2 [Compound 19, Y-Aib-E-G-T-F-T-S-D-Y-S-I-Aib-L-E-K-Q-A-Q-Aib-A-F-V-Q-W-L-I-K(1,3)-GGPSYYVSLRHYYNWLTRQRY-NH2.C20DA-gGlu-gGlu-gGlu-gGlu-gGlu-gGlu-eLys(1,2)]” was tested, and the EC50 (hGLP1R; [1]) was 0.5 nM, the EC50 (hGLP1R; [6]) was 10.2 nM and the EC50 (hNPY2R; [3]) was 19.3 nM.

“H-Y[Aib]EGTFTSDYSI[Aib]LEKQAQ[Aib]EFVEWLIK([AEEA-AEEA-γGlu-γGlu-γGlu-C20 diacid])GGPSEGASLRHYYNWLTRQRY-NH2 [Compound 273, Y-Aib-E-G-T-F-T-S-D-Y-S-I-Aib-L-E-K-Q-A-Q-Aib-E-F-V-E-W-L-I-K(1,3)-GGPSEGASLRHYYNWLTRQRY-NH2.C20DA-gGlu-gGlu-gGlu-OEG-OEG(1,2)]” showed an EC50 (hNPY2R; [2]) of 19.3 nM, an EC50 (hGIPR; [4]) of 0.38 nM and an EC50 (hGIPR; [5]) of 1.52 nM.

“H-Y[Aib]EGTFTSDYSI[Aib]LEKQAQ[Aib]EFVEWLIK([εLys-γGlu-γGlu-γGlu-γGlu-γGlu-γGlu-C20 diacid])GGPSSGASLRHYYNWLTRQRY-NH2 [Compound 215, Y-Aib-E-G-T-F-T-S-D-Y-S-I-Aib-L-E-K-Q-A-Q-Aib-E-F-V-E-W-L-I-K(1,3)-GGPSSGASLRHYYNWLTRQRY-NH2.C20DA-gGlu-gGlu-gGlu-gGlu-gGlu-gGlu-eLys(1,2)]” gave an EC50 (hNPY2R; [2]) of 12.4 nM, an EC50 (hGIPR; [4]) of 0.5 nM and an EC50 (hGIPR; [5]) of 2.94 nM.

Work on “H-Y[Aib]EGTFTSDYSI[Aib]LEKQAQ[dD]AFVEWLIK([εLys-γGlu-γGlu-γGlu-γGlu-γGlu-γGlu-C20 diacid])GGPSSGASLRHYYNWLTRQRY-NH2 [Compound 211, Y-Aib-E-G-T-F-T-S-D-Y-S-I-Aib-L-E-K-Q-A-Q-DAsp-A-F-V-E-W-L-I-K(1,3)-GGPSSGASLRHYYNWLTRQRY-NH2.C20DA-gGlu-gGlu-gGlu-gGlu-gGlu-gGlu-eLys(1,2)]” yielded an EC50 (hGLP1R; [1]) of 0.74 nM, an EC50 (hNPY2R; [2]) of 11.2 nM and an EC50 (hNPY2R; [3]) of 56.3 nM.

“H-Y[Aib]EGTFTSDYSI[Aib]LEKQAQ[dR]AFVEWLIK([εLys-γGlu-γGlu-γGlu-γGlu-γGlu-γGlu-C20 diacid])GGPSSGASLRHYYNWLTRQRY-NH2 [Compound 216, Y-Aib-E-G-T-F-T-S-D-Y-S-I-Aib-L-E-K-Q-A-Q-DArg-A-F-V-E-W-L-I-K(1,3)-GGPSSGASLRHYYNWLTRQRY-NH2.C20DA-gGlu-gGlu-gGlu-gGlu-gGlu-gGlu-eLys(1,2)]” showed an EC50 (hGLP1R; [1]) of 0.31 nM and an EC50 (hNPY2R; [3]) of 16.8 nM.

With “H-Y[Aib]EGTFTSDYSI[Aib]LE[Aib]EAQ[Aib]KFVEWLIK([εLys-γGlu-γGlu-γGlu-γGlu-γGlu-γGlu-C20 diacid])GGPSSGASLRHYYNWLTRQRY-NH2 [Compound 16, Y-Aib-E-G-T-F-T-S-D-Y-S-I-Aib-L-E-Aib-E-A-Q-Aib-K-F-V-E-W-L-I-K(1,3)-GGPSSGASLRHYYNWLTRQRY-NH2.C20DA-gGlu-gGlu-gGlu-gGlu-gGlu-gGlu-eLys(1,2)]” the EC50 (hGLP1R; [1]) was 1.48 nM, the EC50 (hNPY2R; [2]) was 28.8 nM and the EC50 (hNPY2R; [3]) was 197 nM.

Compound “Y[Aib]EGTFTSDYSI[Aib]LEKQAE[Aib]AFVQWLIK([AEEA-AEEA-γGlu-γGlu-γGlu-γGlu-C20 diacid])GGPSEGASLRHYYNWLTRQRY-NH2 [Compound 219, Y-Aib-E-G-T-F-T-S-D-Y-S-I-Aib-L-E-K-Q-A-E-Aib-A-F-V-Q-W-L-I-K(1,3)-GGPSEGASLRHYYNWLTRQRY-NH2.C20DA-gGlu-gGlu-gGlu-gGlu-OEG-OEG(1,2)]” has an EC50 (hNPY2R; [2]) of 12.8 nM, an EC50 (hNPY2R; [3]) of 43.4 nM and an EC50 (hGIPR; [4]) of 0.46 nM. The EC50 (hGIPR; [5]) was 2.43 nM.

With “Y[Aib]EGTFTSDYSI[Aib]LEKQAQ[Aib]AFVEWLIK([γGlu-γGlu-γGlu-γGlu-γGlu-C20 diacid])GGPSSGASLRHYYNWLTRQRY-NH2 [Compound 238, Y-Aib-E-G-T-F-T-S-D-Y-S-I-Aib-L-E-K-Q-A-Q-Aib-A-F-V-E-W-L-I-K(1,3)-GGPSSGASLRHYYNWLTRQRY-NH2.C20DA-gGlu-gGlu-gGlu-gGlu-gGlu(1,2)]” the EC50 (hGLP1R; [1]) was 0.1 nM, the EC50 (hGLP1R; [6]) was 2.55 nM and the EC50 (hNPY2R; [2]) was 11.6 nM.
